Test results taken from ChEMBL document CHEMBL5096227, “Discovery of Ervogastat (PF-06865571): A Potent and Selective Inhibitor of Diacylglycerol Acyltransferase 2 for the Treatment of Non-alcoholic Steatohepatitis” (J Med Chem, 2022).

Experiments:
[1] = physchem; details: buffer, pH 7.4
Description: Lipophilicity, logD of compound at pH 7.4 by shake flask method

[2] = Apparent permeability in MDCK-II cells; format: ADME, cell-based, Canis lupus familiaris; details: dog
[3] = Apparent intrinsic clearance in cryopreserved human hepatocytes measured per million cells at 1 uM incubated for 4 hrs by LC-MS/MS analysis; format: ADME, cell-based, Hepatocyte; details: for hepatocyte CLint at 1 µM: cryopreserved human hepatocytes, read-out: CLH
[4] = Apparent intrinsic clearance in human liver microsomes in presence of NADPH; format: ADME, Microsome; details: read-out: CLH
[5] = target: T1, Diacylglycerol O-acyltransferase 2 (Homo sapiens, UniProt Q96PD7); assay: Inhibition of human DGAT2 expressed in Sf9 insect cell membrane using [1-14C]decanoyl-CoA and 1,2-didecanoyl-sn-glycerol as substrates assessed as incorporation of [1-14C]decanoyl into triacylglycerol preincubated for 120 mins followed by substrate addition and measured after 40 mins by scintillation counting method; format: cell membranes
T1 sequence (Q96PD7 whole entry): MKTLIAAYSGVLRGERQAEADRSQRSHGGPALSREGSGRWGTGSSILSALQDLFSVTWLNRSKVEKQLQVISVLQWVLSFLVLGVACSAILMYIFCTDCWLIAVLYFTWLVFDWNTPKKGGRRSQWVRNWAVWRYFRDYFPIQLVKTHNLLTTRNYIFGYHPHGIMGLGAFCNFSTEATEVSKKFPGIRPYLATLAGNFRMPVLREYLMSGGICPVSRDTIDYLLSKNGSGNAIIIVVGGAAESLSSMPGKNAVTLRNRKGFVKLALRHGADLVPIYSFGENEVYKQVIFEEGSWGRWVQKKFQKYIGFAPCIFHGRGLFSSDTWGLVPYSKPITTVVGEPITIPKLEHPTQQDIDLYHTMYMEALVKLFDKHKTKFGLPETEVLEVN

[6] = Apparent permeability of compound; format: ADME; details: not told
[7] = Lipophilicity, logD of compound; format: physicochemical; details: octanol/water
[8] = Apparent intrinsic clearance in human liver microsomes; format: ADME, Microsome; details: read-out: CLH
[9] = Apparent intrinsic clearance in human hepatocytes measured per million cells; format: ADME, cell-based, Hepatocyte; details: read-out: CLH
[10] = Oral bioavailability in Wistar Han rat at 5 mg/kg; format: ADME, organism-based; details: in vivo
[11] = Half life in human; format: ADME
[12] = target: Cytochrome P450 2C19 (Homo sapiens, UniProt P33261); assay: Reversible inhibition of CYP2C19 in pooled human liver microsomes using 4-Hydroxymephenytoin as substrate incubated for 20 mins in presence of NADPH by HPLC-MS/MS analysis; format: ADME, Microsome
Cytochrome P450 2C19, sequence (P33261 whole entry): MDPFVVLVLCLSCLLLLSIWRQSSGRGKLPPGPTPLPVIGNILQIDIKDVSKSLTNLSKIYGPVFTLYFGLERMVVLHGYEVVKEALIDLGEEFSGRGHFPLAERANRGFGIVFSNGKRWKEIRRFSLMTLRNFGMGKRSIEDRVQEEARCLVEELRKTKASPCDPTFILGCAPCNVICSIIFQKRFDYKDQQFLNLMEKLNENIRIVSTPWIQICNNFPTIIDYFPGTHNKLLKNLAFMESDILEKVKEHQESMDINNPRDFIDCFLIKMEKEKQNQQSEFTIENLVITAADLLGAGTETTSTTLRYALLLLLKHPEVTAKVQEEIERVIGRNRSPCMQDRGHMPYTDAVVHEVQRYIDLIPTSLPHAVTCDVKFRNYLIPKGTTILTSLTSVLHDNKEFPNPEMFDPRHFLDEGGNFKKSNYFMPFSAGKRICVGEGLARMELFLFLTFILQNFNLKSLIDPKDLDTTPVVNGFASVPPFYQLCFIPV

[13] = target: Cytochrome P450 2C9 (Homo sapiens, UniProt P11712); assay: Reversible inhibition of CYP2C9 in pooled human liver microsomes using 4-Hydroxydiclofenac as substrate incubated for 10 mins in presence of NADPH by HPLC-MS/MS analysis; format: ADME, Microsome
Cytochrome P450 2C9, sequence (P11712 whole entry): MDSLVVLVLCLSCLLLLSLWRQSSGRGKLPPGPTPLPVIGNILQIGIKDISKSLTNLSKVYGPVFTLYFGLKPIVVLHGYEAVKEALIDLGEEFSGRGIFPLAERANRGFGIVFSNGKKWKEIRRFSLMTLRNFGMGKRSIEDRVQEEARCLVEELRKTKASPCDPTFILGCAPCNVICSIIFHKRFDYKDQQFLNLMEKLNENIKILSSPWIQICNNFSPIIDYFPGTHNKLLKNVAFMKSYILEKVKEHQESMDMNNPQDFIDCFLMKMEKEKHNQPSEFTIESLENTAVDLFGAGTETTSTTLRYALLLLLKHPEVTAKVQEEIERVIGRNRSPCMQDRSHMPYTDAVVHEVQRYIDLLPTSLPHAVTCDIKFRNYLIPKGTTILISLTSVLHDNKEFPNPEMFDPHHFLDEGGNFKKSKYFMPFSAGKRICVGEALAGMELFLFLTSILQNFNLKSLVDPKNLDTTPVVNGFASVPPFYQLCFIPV

[14] = Dissociation constant, pKa of compound; format: physicochemical
[15] = Drug metabolism in cryopreserved human hepatocytes assessed as O-dearylation mediated oxidative metabolite formation at 10 uM measured for 240 mins by HPLC-UV-MS analysis; format: ADME, cell-based, Hepatocyte; details: 4 h
[16] = Half life in Wistar Han rat; format: ADME; details: in vivo
[17] = Drug metabolism in cryopreserved human hepatocytes assessed as O-deethylation mediated pyridin-3-ol metabolite formation at 10 uM measured for 240 mins by HPLC-UV-MS analysis; format: ADME, cell-based, Hepatocyte; details: 4 h
[18] = Volume of distribution at steady state in Wistar Han rat; format: ADME; details: in vivo, read-out: Vdss
[19] = Drug metabolism in cryopreserved human hepatocytes assessed as oxidation of primary alcohol to carboxylic acid mediated metabolite formation at 10 uM measured for 240 mins by HPLC-UV-MS analysis; format: ADME, cell-based, Hepatocyte; details: 4 h
[20] = target: T2, Cytochrome P450 2B6 (Homo sapiens, UniProt P20813); assay: Reversible inhibition of CYP2B6 in pooled human liver microsomes; format: ADME, Microsome
T2 sequence (P20813 whole entry): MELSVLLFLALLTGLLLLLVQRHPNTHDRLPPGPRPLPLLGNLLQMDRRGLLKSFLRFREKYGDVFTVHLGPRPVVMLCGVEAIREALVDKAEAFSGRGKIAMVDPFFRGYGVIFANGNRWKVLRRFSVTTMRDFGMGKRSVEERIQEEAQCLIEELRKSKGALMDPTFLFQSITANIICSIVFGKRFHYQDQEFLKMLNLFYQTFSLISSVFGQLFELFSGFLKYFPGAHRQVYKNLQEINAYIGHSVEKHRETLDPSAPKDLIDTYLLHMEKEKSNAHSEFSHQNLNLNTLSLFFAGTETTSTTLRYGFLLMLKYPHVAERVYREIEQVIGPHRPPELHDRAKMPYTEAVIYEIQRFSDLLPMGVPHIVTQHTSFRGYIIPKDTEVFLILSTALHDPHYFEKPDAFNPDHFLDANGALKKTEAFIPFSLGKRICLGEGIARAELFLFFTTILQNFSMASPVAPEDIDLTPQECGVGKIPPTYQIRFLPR

[21] = target: T3, Cytochrome P450 1A2 (Homo sapiens, UniProt P05177); assay: Reversible inhibition of CYP1A2 in pooled human liver microsomes using […] as substrate incubated for 20 mins in presence of NADPH by HPLC-MS/MS analysis; format: ADME, Microsome
T3 sequence (P05177 whole entry): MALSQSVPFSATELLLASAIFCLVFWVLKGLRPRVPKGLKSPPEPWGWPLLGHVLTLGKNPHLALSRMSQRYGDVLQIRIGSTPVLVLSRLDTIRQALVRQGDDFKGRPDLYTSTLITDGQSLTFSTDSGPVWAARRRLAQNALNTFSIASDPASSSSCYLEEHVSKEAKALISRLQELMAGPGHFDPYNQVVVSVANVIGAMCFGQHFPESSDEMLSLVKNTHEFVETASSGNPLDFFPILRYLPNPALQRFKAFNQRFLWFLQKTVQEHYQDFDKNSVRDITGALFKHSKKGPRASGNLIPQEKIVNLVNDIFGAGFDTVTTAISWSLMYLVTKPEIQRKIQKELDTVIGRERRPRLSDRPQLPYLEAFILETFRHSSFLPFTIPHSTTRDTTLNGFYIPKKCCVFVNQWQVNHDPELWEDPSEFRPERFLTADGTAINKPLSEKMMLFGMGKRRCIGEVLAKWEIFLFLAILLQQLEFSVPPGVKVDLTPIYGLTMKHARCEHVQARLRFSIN

[22] = target: T4, Cytochrome P450 2C8 (Homo sapiens, UniProt P10632); assay: Reversible inhibition of CYP2C8 in pooled human liver microsomes using desethylamodiaquine as substrate incubated for 10 mins in presence of NADPH by HPLC-MS/MS analysis; format: ADME, Microsome
T4 sequence (P10632 whole entry): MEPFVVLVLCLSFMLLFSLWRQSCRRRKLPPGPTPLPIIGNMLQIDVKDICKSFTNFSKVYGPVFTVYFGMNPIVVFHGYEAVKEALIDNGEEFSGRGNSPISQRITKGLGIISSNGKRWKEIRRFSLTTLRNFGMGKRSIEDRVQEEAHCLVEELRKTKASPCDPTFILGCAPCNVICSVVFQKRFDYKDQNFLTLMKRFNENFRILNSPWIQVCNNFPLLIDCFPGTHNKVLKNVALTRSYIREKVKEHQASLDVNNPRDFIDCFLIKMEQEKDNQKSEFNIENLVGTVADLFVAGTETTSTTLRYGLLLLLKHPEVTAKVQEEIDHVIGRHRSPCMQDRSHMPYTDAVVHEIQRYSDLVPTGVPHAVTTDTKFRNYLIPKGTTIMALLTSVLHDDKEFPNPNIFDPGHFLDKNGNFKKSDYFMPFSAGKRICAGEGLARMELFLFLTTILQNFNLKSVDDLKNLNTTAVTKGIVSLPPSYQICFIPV

[23] = target: T5, Diacylglycerol O-acyltransferase 1 (Homo sapiens, UniProt O75907); assay: Inhibition of human DGAT1 using [1-14C]decanoyl-CoA and 1,2-didecanoyl-sn-glycerol as substrates assessed as incorporation of [1-14C]decanoyl […] preincubated for 30 mins followed by substrate addition and measured after 30 to 90 mins by scintillation counting method
T5 sequence (O75907 whole entry): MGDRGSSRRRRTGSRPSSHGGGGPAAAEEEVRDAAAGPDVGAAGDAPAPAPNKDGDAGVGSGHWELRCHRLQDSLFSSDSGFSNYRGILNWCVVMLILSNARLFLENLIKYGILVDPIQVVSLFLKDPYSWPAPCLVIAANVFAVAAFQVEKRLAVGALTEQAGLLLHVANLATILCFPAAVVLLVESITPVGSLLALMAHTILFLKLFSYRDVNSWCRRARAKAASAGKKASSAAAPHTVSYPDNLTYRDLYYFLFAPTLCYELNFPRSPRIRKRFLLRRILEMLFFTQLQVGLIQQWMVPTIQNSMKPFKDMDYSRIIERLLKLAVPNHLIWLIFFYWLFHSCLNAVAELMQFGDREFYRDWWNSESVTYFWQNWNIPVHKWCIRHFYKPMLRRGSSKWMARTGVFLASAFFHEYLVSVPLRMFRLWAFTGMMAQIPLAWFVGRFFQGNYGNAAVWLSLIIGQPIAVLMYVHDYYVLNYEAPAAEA

[24] = target: CYP3A4/5 (Homo sapiens, UniProt P08684+P20815); assay: Reversible inhibition of CYP3A4/5 in pooled human liver microsomes; format: ADME, Microsome
[25] = Plasma clearance in Wistar Han rat; format: ADME
[26] = target: Cytochrome P450 2D6 (Homo sapiens, UniProt P10635); assay: Reversible inhibition of CYP2D6 in pooled human liver microsomes using dextrorphan as substrate incubated for 14 mins in presence of NADPH by HPLC-MS/MS analysis; format: ADME, Microsome
Cytochrome P450 2D6, sequence (P10635 whole entry): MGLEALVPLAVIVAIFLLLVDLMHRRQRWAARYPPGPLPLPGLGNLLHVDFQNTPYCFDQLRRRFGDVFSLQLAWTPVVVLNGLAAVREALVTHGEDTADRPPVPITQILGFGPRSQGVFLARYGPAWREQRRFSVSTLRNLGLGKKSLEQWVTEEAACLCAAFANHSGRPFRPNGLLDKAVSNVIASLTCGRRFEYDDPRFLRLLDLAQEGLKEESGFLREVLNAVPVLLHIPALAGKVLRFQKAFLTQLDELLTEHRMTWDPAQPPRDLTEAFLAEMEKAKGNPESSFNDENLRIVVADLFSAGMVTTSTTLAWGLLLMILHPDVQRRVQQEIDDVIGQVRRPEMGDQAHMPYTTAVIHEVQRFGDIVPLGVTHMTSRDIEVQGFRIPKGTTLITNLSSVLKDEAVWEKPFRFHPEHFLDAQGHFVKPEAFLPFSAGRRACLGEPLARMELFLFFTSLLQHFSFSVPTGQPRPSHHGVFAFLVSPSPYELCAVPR

Row | Compound | logD [1] | Papp ([2]; MDCK, read-out: Papp) [×10⁻⁶ cm/s] | hepatocyte CLint at 1 µM [3] [µL/min/1e6 cells] | IC50 [5] [nM] | also measured
1 | CCOc1cccnc1Oc1cncc(-c2ncc(C(=O)NC3(CO)CCOC3)cn2)c1 (stereo in doubt; 4) | 1.6 | 4 | < 3 |  | 
2 | CCOc1cccnc1Oc1cncc(-c2ncc(C(=O)NC3CCS(=O)(=O)C3)cn2)c1 (racemic) | 1.6 | 5 | 5 |  | 
3 | CCOc1cccnc1Oc1cncc(-c2ncc(C(=O)NC(C)(C)CS(C)(=O)=O)cn2)c1 | 1.9 | 15 | 8 |  | 
4 | CCOc1cccnc1Oc1cncc(-c2ncc(C(=O)N[C@@H]3CCOC3)cn2)c1 | 1.9 | 14 | 5 |  | 
5 | CCOc1ccccc1O[C@@H]1CCCN(c2ncc(C(=O)NC(C)(C)CO)cn2)C1 | 2.8 | 19 |  |  | microsomal CLint [4]: 121 µL/min/mg
6 | CCNC(=O)c1cnc(-c2cncc(Oc3ncccc3OCC)c2)nc1 |  | 15 | 7 | 84.6 | 
7 | CCOc1cccnc1O[C@@H]1CCCN(c2ncc(C(=O)NC(C)(C)CO)cn2)C1 | 1.8 |  |  | 31.8 | microsomal CLint [4]: 108 µL/min/mg
8 | CCOc1ccccc1O[C@@H]1CCCN(c2ncc(C(=O)NCc3cccc(C(=O)O)c3)cn2)C1 |  |  |  |  | Papp [6]: 2 ×10⁻⁶ cm/s; logD [7]: 0.7; microsomal CLint [8]: 9 µL/min/mg; hepatocyte CLint [9]: < 12 µL/min/1e6 cells
9 | CCOc1cccnc1Oc1cncc(-c2ncc(C(=O)NC3CCOCC3)cn2)c1 | 2.6 | 20 | 7 | 353 | 
10 | CCOc1cccnc1Oc1cncc(-c2ncc(C(=O)NC3CC(=O)N(C)C3)cn2)c1 (racemic) | 1.7 | 1 | < 3 | 501 | 
11 | CCOc1cccnc1Oc1cncc(-c2ncc(C(=O)NC(C)(C)CO)cn2)c1 | 2 | 21 | 8 | 6.6 | bioavailability [10]: 29%; half-life [11]: > 240 min; IC50 [12]: > 30000 nM; IC50 [13]: 7800 nM; pKa [14]: 2.5; Drug metabolism [15]: Metabolite_Notdetected; half-life [16]: 24 min; Drug metabolism [17]: Metabolite_Detected; Vd [18]: 1.2 L/kg; Drug metabolism [19]: Metabolite_Detected; IC50 [20]: > 24000 nM; IC50 [21]: > 30000 nM; IC50 [22]: > 30000 nM; IC50 [23]: > 50000 nM; IC50 [24]: > 30000 nM; microsomal CLint [4]: 14 µL/min/mg; clearance [25]: 57 mL/min/kg; IC50 [26]: > 30000 nM
12 | CCOc1cccnc1Oc1cncc(-c2ncc(C(=O)NC3CCCOC3)cn2)c1 (racemic) | 2.2 | 23 | 11 | 11.5 | 
13 | CCOc1cccnc1Oc1cncc(-c2ncc(C(=O)NC3(CO)CCOC3)cn2)c1 (stereo in doubt; 5) |  |  |  |  | Papp ([2]; mdck-ii): 3 10^-6 cm/s; CLH ([3]; hepatocytes, 4 h, 1 µM): < 4 µL/min
